Assay: xn = mol fraction of the nth substance listed

CC(=O)Oc1ccccc1C(=O)O + CCCO
viscosity [mPa·s], 101 kPa
Conditions | x1 = 0.00057 | x1 = 0.000763 | x1 = 0.000955 | x1 = 0.00115 | x1 = 0.00134 | x1 = 0.00153 | x1 = 0.00191
293.15 K | 2.257 | 2.26 | 2.261 | 2.262 | 2.265 | 2.266 | 2.27
298.15 K | 2.207 | 2.209 | 2.21 | 2.211 | 2.213 | 2.215 | 2.217
303.15 K | 1.718 | 1.719 | 1.719 | 1.721 | 1.722 | 1.723 | 1.726
308.15 K | 1.622 | 1.623 | 1.624 | 1.625 | 1.626 | 1.627 | 1.628
310.15 K | 1.458 | 1.459 | 1.459 | 1.46 | 1.46 | 1.461 | 1.461
313.15 K | 1.397 | 1.398 | 1.399 | 1.399 | 1.399 | 1.4 | 1.401

C1CCOC1 + O=C1CCCO1
viscosity [mPa·s]
Conditions | 293.15 K | 298.15 K | 303.15 K | 308.15 K | 313.15 K | 318.15 K | 323.15 K
101 kPa, x1 = 0.1009 | 1.614 | 1.496 | 1.39 | 1.297 | 1.212 | 1.136 | 1.068
101 kPa, x1 = 0.2003 | 1.388 | 1.292 | 1.206 | 1.128 | 1.058 | 0.995 | 0.938
101 kPa, x1 = 0.3008 | 1.203 | 1.123 | 1.052 | 0.987 | 0.93 | 0.877 | 0.83
101 kPa, x1 = 0.4004 | 1.046 | 0.98 | 0.92 | 0.866 | 0.818 | 0.773 | 0.733
101 kPa, x1 = 0.4916 | 0.936 | 0.878 | 0.825 | 0.778 | 0.735 | 0.696 | 0.66
101 kPa, x1 = 0.5991 | 0.809 | 0.761 | 0.717 | 0.677 | 0.641 | 0.608 | 0.578
101 kPa, x1 = 0.6997 | 0.706 | 0.667 | 0.631 | 0.598 | 0.567 | 0.537 | 0.511
101 kPa, x1 = 0.8 | 0.62 | 0.589 | 0.56 | 0.531 | 0.506 | 0.482 | 0.461
101 kPa, x1 = 0.8997 | 0.567 | 0.538 | 0.511 | 0.485 | 0.463 | 0.441 | 0.415
101.33 kPa, x1 = 0.1077 | 1.583 | 1.462 | – | – | – | – | –
101.33 kPa, x1 = 0.3124 | 1.172 | 1.089 | – | – | – | – | –
101.33 kPa, x1 = 0.701 | 0.682 | 0.641 | – | – | – | – | –
101.33 kPa, x1 = 0.8954 | 0.539 | 0.51 | – | – | – | – | –

CC1COC(=O)O1 (stereo not given) + CC#N
viscosity [mPa·s], 101.3 kPa
Conditions | x1 = 0.0418 | x1 = 0.0892 | x1 = 0.1438 | x1 = 0.2071 | x1 = 0.2815 | x1 = 0.3701 | x1 = 0.4776 | x1 = 0.6104 | x1 = 0.7791
298.15 K | 0.383 | 0.423 | 0.479 | 0.551 | 0.642 | 0.778 | 0.968 | 1.248 | 1.675
303.15 K | 0.363 | 0.403 | 0.454 | 0.521 | 0.605 | 0.731 | 0.906 | 1.161 | 1.535
308.15 K | 0.347 | 0.384 | 0.432 | 0.494 | 0.575 | 0.693 | 0.846 | 1.078 | 1.42
313.15 K | 0.331 | 0.367 | 0.411 | 0.469 | 0.543 | 0.654 | 0.802 | 1.054 | 1.31
318.15 K | 0.316 | 0.353 | 0.397 | 0.455 | 0.509 | 0.625 | 0.76 | 0.965 | 1.22

C1CCOC1 + CCC(C)O
viscosity [mPa·s], 101 kPa
Conditions | 298.15 K | 313.15 K
x1 = 0.0637 | 2.356 | 1.464
x1 = 0.1052 | 2.02 | 1.309
x1 = 0.1565 | 1.747 | 1.153
x1 = 0.2117 | 1.467 | 0.9942
x1 = 0.3052 | 1.155 | 0.8235
x1 = 0.4013 | 0.9585 | 0.7044
x1 = 0.4556 | 0.8592 | 0.6537
x1 = 0.4888 | 0.8108 | 0.6218
x1 = 0.5 | 0.8021 | –
x1 = 0.6054 | 0.6741 | 0.5395
x1 = 0.7009 | 0.5953 | 0.4897
x1 = 0.8036 | 0.533 | 0.4512
x1 = 0.8596 | 0.5129 | 0.4316
x1 = 0.9151 | 0.4818 | 0.4075
x1 = 0.9497 | 0.4749 | 0.4072

COc1ccccc1 + ClCCCl
viscosity [mPa·s]
Conditions | 298.15 K | 303.15 K | 308.15 K | 313.15 K
101 kPa, x1 = 0.0971 | 0.8095 | 0.7615 | 0.7135 | 0.6712
101 kPa, x1 = 0.1961 | 0.8125 | 0.7644 | 0.719 | 0.6736
101 kPa, x1 = 0.2958 | 0.8228 | 0.7712 | 0.7246 | 0.6785
101 kPa, x1 = 0.3963 | 0.8354 | 0.7823 | 0.7333 | 0.6881
101 kPa, x1 = 0.4918 | 0.8519 | 0.7983 | 0.7466 | 0.7004
101 kPa, x1 = 0.5946 | 0.8754 | 0.8183 | 0.7639 | 0.715
101 kPa, x1 = 0.6933 | 0.9012 | 0.8399 | 0.7821 | 0.7319
101 kPa, x1 = 0.7944 | 0.9299 | 0.8693 | 0.8076 | 0.7519
101 kPa, x1 = 0.8972 | 0.9672 | 0.8983 | 0.834 | 0.7759
101.3 kPa, x1 = 0.0479 | – | 0.708 | – | –
101.3 kPa, x1 = 0.2944 | – | 0.726 | – | –
101.3 kPa, x1 = 0.3833 | – | 0.74 | – | –
101.3 kPa, x1 = 0.5479 | – | 0.776 | – | –
101.3 kPa, x1 = 0.6192 | – | 0.785 | – | –
101.3 kPa, x1 = 0.6717 | – | 0.797 | – | –
101.3 kPa, x1 = 0.9751 | – | 0.896 | – | –

Reference: the CheMixHub viscosity set
